In patent US20130324609A1, “DEPRESSION DISORDER THERAPEUTICS WITH CREATINE ANALOGS” (UNIVERSITY OF UTAH RESEARCH FOUNDATION, priority 2010, published 2013):

What was measured:
Assay type in all cases: in vivo, human
[1] = Adverse events, vital signs and laboratory tests during creatine treatment
From the text: (§1) Diagnoses were established with the Schedule for Affective Disorders and Schizophrenia for School-Age Children-Present and Lifetime Version (K-SADS-PL) (Kaufman et al. 1997). A complete blood count, metabolic panel, lipid profile, thyroid stimulating hormone, urinalysis and urine microalbumin were obtained to establish that participants were in generally good health, and to rule out the presence of undiagnosed medical conditions. The laboratory studies were repeated at the conclusion of treatment, to prospectively identify any abnormalities associated with creatine administration.
(§2) Participants with depression were treated with fixed-dose Creapure® brand of creatine monohydrate (AlzChem LLC, Trostberg, Germany) 4 grams by mouth daily for 8 weeks. At each study visit, the following rating scales were administered: the CDRS ? R, the Clinical Global Impressions scale (Guy 1976) and the Columbia-Suicide Severity Rating Scale (C-SSRS) (Posner 2010). Adverse events were recorded at each study visit. Change in CDRS-R raw score was the primary outcome measure, with C-SSRS results and treatment-emergent adverse events serving as secondary clinical outcomes. ^31P-MRS brain scans were acquired with a Siemens 3 Tesla MRS scanner (Siemens AG, Munich, Germany) that is FDA-approved for clinical use. Two dimensional chemical shift imaging free induction decay (2D CSI FID) pulse sequence with an Fourier voxel resolution of 25×25×25 mm3, Field of View (FOV)=200×200×25 mm3, TR/TE=3000/2.3 ms, vector size=1024, bandwidth=2500 Hz, data collection time=11.2 minutes and the number of averages=24 was implemented to collect 2D CSI FID data using a ^31P/1H double-tuned volume head coil (Clinical MR Solutions LLC, Brookfield, Wis., USA). The proton channel was used for localization, high-resolution anatomic image acquisition and shimming Shimming was performed over the excited volume. 3D high-resolution images used for localization of CSI data were collected using inversion recovery magnetization prepared rapid gradient echo (MP-RAGE) pulse sequence with isotropic 1 mm3 resolution. The imaging parameters were as follows: TR/TE=2000/3.37 ms, FOV=256×192×144 mm3, and matrix size=256×1 92×144, for a total acquisition time of 4.8 minutes. Participants were instructed during the informed consent process, and again before entering the scanner, that they could discontinue scanning at any point if they experienced discomfort (e.g. claustrophobic anxiety). Non-study personnel trained in research patient advocacy attended each scanning session. The study protocol included two ^31P-MRS scans: one at baseline and a follow-up scan 8 weeks later.
Participants' vital signs were recorded at each study visit. […] Although not measured systematically, participant and parent acceptance of creatine as a treatment intervention appeared good, and there were no premature terminations due to concerns about the study drug.

[2] = test system: brain phosphorus metabolites (PCr, b-NTP, pH); experiment: 31P-MRS brain scans of phosphorus metabolites at baseline and after 8 weeks of creatine
Method: Healthy control female adolescents were recruited for comparison ^31P-MRS scans through IRB-approved advertising. Following informed consent, the K-SADS-PL and CDRS-R were administered to establish the absence of psychiatric disorder(s) or depressive symptoms.
as §2
^31P MRS data were analyzed using jMRUI software (jMRUI version 4.0, European Community). A Hamming filter was applied to reduce signal contamination from neighbouring voxels before performing 2D Fast Fourier Transform (FFT) on the raw data. Nine voxel signals from a slice with a thickness of 25 mm located at the corpus callosum, anterior commissure and posterior commissure were summed after 2D FFT. Each voxel FID was apodized with a 10 Hz exponential line broadening before zero filling and FFT. The zero-order and first-order phase correction was performed in all spectrums.
We calculated the signal amplitudes for individual metabolites using AMARES (Advanced Method for Accurate, Robust and Efficient Spectral fitting of MRS data), which is a non-linear, time domain fitting algorithm within the jMRUI software application. The estimated amplitudes of phosphorus metabolites are reported with respect to the total ^31P or beta-NTP amplitude within the time domain signals. The ^31P MRS signal amplitude for each metabolite is directly related to the integrated area under the modeled spectrum in the frequency domain.
The depressed participants' ^31P-MRS brain scans were performed at baseline (prior to the first dose of creatine) and repeated at the conclusion of treatment. We enrolled and acquired baseline scans from ten healthy female adolescent controls; six agreed to return eight weeks later for a second scan. Statistical analyses were performed using JMP 8 (SAS Inc., Cary, N.C. USA). Because this was an open-label pilot study, all analyses were considered exploratory and no correction for multiple hypothesis testing was applied.

[3] = test system: suicidality in female adolescents with MDD; experiment: Columbia-Suicide Severity Rating Scale (C-SSRS) monitoring during creatine treatment; conditions: for C-SSRS During Treatment With Creatine (Weeks): monohydrate
Method: as §2
One participant reported no history of suicidal thoughts or behavior, but the others each endorsed significant histories of suicidality, indicating the severity and chronicity of the participants. Three of the participants had attempted suicide between 5 months and 5 years prior to study entry; at intake, four participants reported suicidal ideation in the 2 weeks prior to their baseline visit. During the treatment phase of the study, two participants reported no suicidality. Three participants reported suicidal ideation as treatment began, which lasted between 2 and 6 weeks. […]

[4] = test system: females between 13-18 years of age with a primary diagnosis of MDD, fluoxetine-treated (SSRI-resistant depression); experiment: Open-label adjunctive creatine study: Children's Depression Rating Scale-Revised (CDRS-R) raw score
Method: Approval for the study was obtained from the University of Utah Institutional Review Board (IRB). Informed consent consisted of written parental permission as well as written assent from participants. The study was conducted under U.S. Food and Drug Administration (FDA) Investigational New Drug Application #104,586. An external Data Safety and Monitoring Board vested with authority to halt the trial was established, and the study was conducted in accordance of the principles of Good Clinical Practice (GCP).
Participants were recruited through clinician referrals and IRB-approved advertising. Consecutive patients who met inclusion criteria were enrolled. Inclusion criteria included the following: females between 13-18 years of age with a primary diagnosis of MDD and depressive symptoms persisting for >2 weeks at baseline; fluoxetine treatment for >8 weeks with >4 weeks at a dose of >40 mg/day (if doses higher than 20 mg/day were not tolerated, participants could meet inclusion criteria by taking fluoxetine 20 mg/day for >8 weeks); and a current Children's Depression Rating Scale-Revised (CDRS-R) (Poznanski and Mokros 1996) raw score>40. Consistent with the preliminary nature of the study, few exclusion criteria were applied. For example, no restrictions were placed on concomitant medications or psychotherapy. The study's exclusion criteria were: pre-existing renal disease, proteinuria or microalbuminuria at baseline; contraindication to magnetic resonance scanning (e.g. ferromagnetic implants or claustrophobia); primary diagnosis other than MDD; active psychotic symptoms; high risk for suicidal behavior; positive pregnancy test; active alcohol or drug addiction; known or suspected mental retardation; and unstable medical condition.
as §1
as §2, with “The imaging parameters were as follows: TR/TE=2000/3.37 ms, FOV=256×192×144 mm3, and matrix size=256×1 92×144, for a total acquisition time of 4.8 minutes. Participants were instructed during the informed consent process, and again before entering the scanner, that they could discontinue scanning at any point if they experienced discomfort (e.g. claustrophobic anxiety). Non-study personnel trained in research patient advocacy attended each scanning session. The study protocol included two ^31P-MRS scans: one at baseline and a follow-up scan 8 weeks later.” left out

[5] = entry vs week 8, creatine 4 g daily adjunctive to fluoxetine, n=5

Structure (SMILES): CN(CC(=O)O)C(=N)N.O [creatine, creatine monohydrate]
- Serious Adverse Events (SAEs) ([1]; in vivo): no Serious Adverse Events
- changes in weight, blood pressure or heart rate ([1]; in vivo): No statistically significant changes
- course of adverse events ([1]; in vivo): self-limited
- microalbuminuria or serum creatinine outside the reference range ([1]; in vivo): No participant developed microalbuminuria or a serum creatinine outside the reference range
- tolerability ([1]; in vivo): well tolerated
- withdrawal due to treatment emergent adverse effects or lack of efficacy ([1]; in vivo): No participant withdrew
- Adverse Events ([1]; participant 3, * = possibly or probably related to study drug, monohydrate): H1N1 influenza*
- PCr-TP, Mean 8 Weeks ([2]; MDD group n=5 after 8 weeks creatine 4 g daily, mean baseline 0.1525, p 0.020 paired t-test): 0.1610
- b-NTP/TP, Mean 8 Weeks ([2]; MDD group n=5 after 8 weeks creatine, mean baseline 0.125, p 0.729): 0.128
- PCr/b-NTP, Mean 8 Weeks ([2]; MDD group n=5 after 8 weeks creatine, mean baseline 1.221, p 0.528): 1.270
- pH, Mean 8 Weeks ([2]; MDD group n=5 after 8 weeks creatine, mean baseline 7.059, p 0.648): 7.071
- change in mean PCr/b-NTP ratio ([2]; following 8 weeks of treatment): no change
- change in mean b-NTP ([2]; following 8 weeks of treatment): no change
- change in mean pH ([2]; following 8 weeks of treatment): no change
- change in mean PCr ([2]; following 8 weeks of treatment, p=0.020, paired t-test, 2-tailed): significant increase
- duration of suicidal ideation reported as treatment began ([3]; in vivo): 2-6 weeks
- outcome of participants' suicidal thoughts ([3]; in vivo): resolved during treatment with creatine and did not recur
- C-SSRS During Treatment With Creatine (Weeks) ([3]; participant 3, baseline: wish to be dead 1 week prior to study drug): Wish to be Dead (1)
- C-SSRS During Treatment With Creatine (Weeks) ([3]; participant 4, baseline: wish to be dead 1 week prior to study entry): Wish to be Dead (1-5)
- mean CDRS-R score after eight weeks of treatment ([4]; creatine monohydrate 4 g by mouth daily for 8 weeks, adjunctive to fluoxetine, n=5, mean raw score at entry 69): 30.6
- decrease of mean CDRS-R raw score [4, 5]: 56%
- mean reduction in CDRS-R raw score (primary outcome measure) [4, 5]: 38.4
- CDRS-R (Week) ([4]; participant 1, week 8, baseline 82, fluoxetine 40 mg): 24 (8)
- CDRS-R (Week) ([4]; participant 2, week 8, baseline 76, fluoxetine 40 mg): 44 (8)
- CDRS-R (Week) ([4]; participant 3, week 8, baseline 59, fluoxetine 40 mg): 29 (8)
- CDRS-R (Week) ([4]; participant 4, week 8, baseline 66, fluoxetine 20 mg): 23 (8)
- CDRS-R (Week) ([4]; participant 5, week 8, baseline 62, fluoxetine 40 mg): 33 (8)
- mean CDRS-R raw score at week ten ([4]; two weeks after discontinuation of creatine, compared with week 8): lower than at the conclusion of treatment
